Where two headings read alike, the source gives them in different places.
Key:
Assay type in all cases: biochemical
human Yes1 enzyme = target: T1, human Yes1 enzyme (Homo sapiens, UniProt P07947); test: Yes1 enzyme inhibitory activity (time-resolved fluorometry, biotinylated peptide phosphorylation); details: read-out: YES_IC50
T1 construct: made in house
Outline: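 Inhibition was expressed against a compound-free control to give IC50, using TR-FRET read-out (Eu-cryptate anti-pTyr antibody, streptavidin-XL665).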

human Src enzyme = target: T2, human Src enzyme (Homo sapiens, UniProt P12931); test: Src enzyme inhibitory activity (time-resolved fluorometry, biotinylated peptide phosphorylation); details: read-out: SRC_IC50
T2 construct: purchased Carna Biosciences, Inc. 08-173
T2 sequence (P12931 whole entry): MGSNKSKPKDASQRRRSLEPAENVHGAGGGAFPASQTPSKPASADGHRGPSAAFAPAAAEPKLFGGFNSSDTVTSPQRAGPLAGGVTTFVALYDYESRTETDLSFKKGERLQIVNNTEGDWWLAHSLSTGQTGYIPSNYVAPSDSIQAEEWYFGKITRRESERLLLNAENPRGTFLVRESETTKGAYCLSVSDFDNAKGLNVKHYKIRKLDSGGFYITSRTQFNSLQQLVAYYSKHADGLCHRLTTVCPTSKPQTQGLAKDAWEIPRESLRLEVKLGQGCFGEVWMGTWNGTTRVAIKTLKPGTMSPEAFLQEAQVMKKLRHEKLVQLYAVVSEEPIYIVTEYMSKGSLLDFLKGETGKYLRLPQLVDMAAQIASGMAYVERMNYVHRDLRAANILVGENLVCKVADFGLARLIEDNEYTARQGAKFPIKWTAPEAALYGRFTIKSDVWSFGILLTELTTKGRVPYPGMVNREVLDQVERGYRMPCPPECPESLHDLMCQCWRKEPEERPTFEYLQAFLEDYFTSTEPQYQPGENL
Outline: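 Compounds were tested for blocking tyrosine phosphorylation of a biotinylated peptide substrate by recombinant human Src. Phosphorylated product was quantified by time-resolved fluorometry using europium cryptate and XL665 conjugates, and IC50 was calculated against the compound-free control.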

human Lck enzyme = target: T3, human Lck enzyme (Homo sapiens, UniProt P06239); test: Lck enzyme inhibitory activity (time-resolved fluorometry, biotinylated peptide phosphorylation); details: read-out: LCK_IC50
T3 construct: purchased Carna Biosciences, Inc. 08-170
T3 sequence (P06239 whole entry): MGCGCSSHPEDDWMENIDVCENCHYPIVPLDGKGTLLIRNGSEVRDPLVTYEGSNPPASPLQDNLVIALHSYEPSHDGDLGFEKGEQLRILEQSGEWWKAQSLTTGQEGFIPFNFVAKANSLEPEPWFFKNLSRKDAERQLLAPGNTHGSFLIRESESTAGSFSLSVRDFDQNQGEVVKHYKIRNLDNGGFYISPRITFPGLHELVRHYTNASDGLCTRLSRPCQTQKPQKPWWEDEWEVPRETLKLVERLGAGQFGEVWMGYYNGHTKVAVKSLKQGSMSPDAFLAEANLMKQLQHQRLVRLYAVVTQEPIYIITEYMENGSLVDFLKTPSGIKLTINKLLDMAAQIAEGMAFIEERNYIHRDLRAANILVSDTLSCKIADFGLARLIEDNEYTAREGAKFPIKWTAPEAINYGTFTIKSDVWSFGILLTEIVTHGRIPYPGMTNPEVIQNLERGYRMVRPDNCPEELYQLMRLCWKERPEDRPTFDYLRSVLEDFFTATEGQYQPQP
Outline: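 Readout pairs a europium cryptate-labelled anti-phosphotyrosine antibody with XL665-streptavidin, measured by time-resolved fluorescence. IC50 derived from percent inhibition against untreated controls.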

[1] = biotinylated peptide phosphorylation

T1 sequence (P07947 whole entry): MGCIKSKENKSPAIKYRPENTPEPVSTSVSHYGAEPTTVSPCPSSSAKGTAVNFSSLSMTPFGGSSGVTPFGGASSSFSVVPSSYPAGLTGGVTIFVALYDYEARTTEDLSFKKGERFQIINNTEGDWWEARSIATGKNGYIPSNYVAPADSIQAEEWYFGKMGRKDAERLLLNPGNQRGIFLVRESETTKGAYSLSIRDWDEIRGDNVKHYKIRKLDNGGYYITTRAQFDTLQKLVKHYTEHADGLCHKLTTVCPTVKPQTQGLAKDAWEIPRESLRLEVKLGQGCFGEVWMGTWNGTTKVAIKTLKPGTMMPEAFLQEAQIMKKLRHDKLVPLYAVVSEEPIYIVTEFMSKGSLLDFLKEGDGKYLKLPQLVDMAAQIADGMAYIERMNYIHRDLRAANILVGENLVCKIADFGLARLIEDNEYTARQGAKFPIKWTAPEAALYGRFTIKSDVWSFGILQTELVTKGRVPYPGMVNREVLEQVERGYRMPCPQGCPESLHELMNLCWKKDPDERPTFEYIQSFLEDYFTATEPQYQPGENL

Structure (SMILES) | IC50 (human Yes1 enzyme) [nM] | IC50 (human Src enzyme) [nM] | IC50 (human Lck enzyme) [nM] | IC50 (human Yes1 enzyme; [1]) [nM] | IC50 (human Src enzyme; [1]) [nM] | IC50 (human Lck enzyme; [1]) [nM]
Cc1cc(Oc2ccccc2F)ncc1-n1ncc(C(=O)c2cc3cc(SC(F)F)c(N4C(=O)NC(C)(C)C4=O)cc3[nH]2)c1N [Example 5-1-359, 3-[2-[5-amino-1-[6-(2-fluorophenoxy)-4-methylpyridin-3-yl]pyrazole-4-carbonyl]-5-(difluoromethylsulfanyl)-1H-indol-6-yl]-5,5-dimethylimidazolidine-2,4-dione] | 6 | 130 | 25 |  |  | 
Cc1cc(-n2ncc(C(=O)c3cc4cc(OC5CCN(CCO)CC5)c(Br)cc4[nH]3)c2N)ccc1Oc1ccccc1F [Example 5-1-225, [5-amino-1-[4-(2-fluorophenoxy)-3-methylphenyl]pyrazol-4-yl]-[6-bromo-5-[1-(2-hydroxyethyl)piperidin-4-yl]oxy-1H-indol-2-yl]methanone] | 0.46 | 89 | 12 |  |  | 
Cc1cc2cc(C(=O)c3cnn(-c4ccc(Oc5ccccc5F)cc4C)c3N)[nH]c2cc1NS(=O)(=O)c1cccc(C#N)n1 [Example 5-1-535, N-[2-[5-amino-1-[4-(2-fluorophenoxy)-2-methylphenyl]pyrazole-4-carbonyl]-5-methyl-1H-indol-6-yl]-6-cyanopyridine-2-sulfonamide] |  |  |  | 4.1 | 390 | 78
Cc1cc(Oc2cccc(F)c2F)ncc1-n1ncc(C(=O)c2cc3cc(F)c(NS(C)(=O)=O)cc3[nH]2)c1N [Example 4-2-032, N-[2-[5-amino-1-[6-(2,3-difluorophenoxy)-4-methylpyridin-3-yl]pyrazole-4-carbonyl]-5-fluoro-1H-indol-6-yl]methanesulfonamide] |  |  |  | 3.5 | 92 | 27
Cc1cc(Oc2ccccc2F)ncc1-n1ncc(C(=O)c2cc3cc(OC(F)F)c(NS(=O)(=O)N4CCOCC4)cc3[nH]2)c1N [Example 4-22-002, N-[2-[5-amino-1-[6-(2-fluorophenoxy)-4-methylpyridin-3-yl]pyrazole-4-carbonyl]-5-(difluoromethoxy)-1H-indol-6-yl]morpholine-4-sulfonamide] |  |  |  | 3 | 240 | 68
Cc1cc2cc(C(=O)c3cnn(-c4cnc(Oc5c(F)cccc5F)cc4C)c3N)[nH]c2cc1NS(=O)(=O)N1CCOCC1 [Example 4-2-109, N-[2-[5-amino-1-[6-(2,6-difluorophenoxy)-4-methylpyridin-3-yl]pyrazole-4-carbonyl]-5-methyl-1H-indol-6-yl]morpholine-4-sulfonamide] |  |  |  | 1.9 | 210 | 45
Cc1cc(Oc2c(F)cccc2F)ncc1-n1ncc(C(=O)c2cc3cc(OC4CCN(C5CS(=O)(=O)C5)CC4)c(Br)cc3[nH]2)c1N [Example 5-1-228, [5-amino-1-[6-(2,6-difluorophenoxy)-4-methylpyridin-3-yl]pyrazol-4-yl]-[6-bromo-5-[1-(1,1-dioxothietan-3-yl)piperidin-4-yl]oxy-1H-indol-2-yl]methanone] | 1.3 | 13 | 3.1 |  |  | 
Cc1cc2cc(C(=O)c3cnn(-c4ccc(Oc5ccccc5F)cc4C)c3N)[nH]c2cc1N1C(=O)NC(C)(C)C1=O [Example 5-1-356, 3-[2-[5-amino-1-[4-(2-fluorophenoxy)-2-methylphenyl]pyrazole-4-carbonyl]-5-methyl-1H-indol-6-yl]-5,5-dimethylimidazolidine-2,4-dione] | 0.87 | 17 | 4.4 |  |  | 
Cc1cc(Oc2ccccc2Cl)ncc1-n1ncc(C(=O)c2cc3cc(F)c(NS(=O)(=O)CCCF)cc3[nH]2)c1N [Example 4-2-023, N-[2-[5-amino-1-[6-(2-chlorophenoxy)-4-methylpyridin-3-yl]pyrazole-4-carbonyl]-5-fluoro-1H-indol-6-yl]-3-fluoropropane-1-sulfonamide] |  |  |  | 1.7 | 84 | 47
Cc1cc(Oc2ccccn2)ccc1-n1ncc(C(=O)c2cc3cc(F)c(NS(=O)(=O)CCCF)cc3[nH]2)c1N [Example 4-2-017, N-[2-[5-amino-1-(2-methyl-4-pyridin-2-yloxyphenyl)pyrazole-4-carbonyl]-5-fluoro-1H-indol-6-yl]-3-fluoropropane-1-sulfonamide] |  |  |  | 0.55 | 26 | 17
COc1ccccc1S(=O)(=O)Nc1cc2[nH]c(C(=O)c3cnn(-c4cnc(Oc5c(F)cccc5F)cc4C)c3N)cc2cc1OCC(F)F [Example 5-1-329, N-[2-[5-amino-1-[6-(2,6-difluorophenoxy)-4-methylpyridin-3-yl]pyrazole-4-carbonyl]-5-(2,2-difluoroethoxy)-1H-indol-6-yl]-2-methoxybenzenesulfonamide] | 9 | 720 | 150 |  |  | 
Cc1cc(Oc2ccccc2F)ncc1-n1ncc(C(=O)c2cc3cc(F)c(NS(=O)(=O)NCCO)cc3[nH]2)c1N [Example 4-6-001, {5-amino-1-[6-(2-fluorophenoxy)-4-methylpyridin-3-yl]pyrazol-4-yl}-[5-fluoro-6-(2-hydroxyethylsulfamoylamino)-1H-indol-2-yl]methanone] |  |  |  | 0.92 | 70 | 13
Cc1cc(Oc2ccccc2F)ncc1-n1ncc(C(=O)c2cc3cc(OC(F)F)c(N4C(=O)NC(C)(C)C4=O)cc3[nH]2)c1N [Example 5-1-402, 3-[2-[5-amino-1-[6-(2-fluorophenoxy)-4-methylpyridin-3-yl]pyrazole-4-carbonyl]-5-(difluoromethoxy)-1H-indol-6-yl]-5,5-dimethylimidazolidine-2,4-dione] |  |  |  | 1.8 | 63 | 8.2
Cc1cc(-n2ncc(C(=O)c3cc4cc(OCC(F)F)c(N5CCN(S(C)(=O)=O)CC5)cc4[nH]3)c2N)ccc1Oc1ccccc1F [Example 5-1-171, [5-amino-1-[4-(2-fluorophenoxy)-3-methylphenyl]pyrazol-4-yl]-[5-(2,2-difluoroethoxy)-6-(4-methylsulfonylpiperazin-1-yl)-1H-indol-2-yl]methanone] | 1.1 | 79 | 49 |  |  | 
Cc1cc(Oc2c(F)cccc2F)ncc1-n1ncc(C(=O)c2cc3cc(SC(F)F)c(NS(=O)(=O)CCCF)cc3[nH]2)c1N [Example 5-1-320, N-[2-[5-amino-1-[6-(2,6-difluorophenoxy)-4-methylpyridin-3-yl]pyrazole-4-carbonyl]-5-(difluoromethylsulfanyl)-1H-indol-6-yl]-3-fluoropropane-1-sulfonamide] | 18 | 680 | 140 |  |  | 
Cc1cc(Oc2c(F)cccc2F)ncc1-n1ncc(C(=O)c2cc3cc(OC4CCN(C(C)C)CC4)c(-c4cnn(C)c4)cc3[nH]2)c1N [Example 5-1-249, [5-amino-1-[6-(2,6-difluorophenoxy)-4-methylpyridin-3-yl]pyrazol-4-yl]-[6-(1-methylpyrazol-4-yl)-5-(1-propan-2-ylpiperidin-4-yl)oxy-1H-indol-2-yl]methanone] | 0.77 | 7.4 | 3.7 |  |  | 
Cc1cc2cc(C(=O)c3cnn(-c4cnc(Oc5ccccc5F)cc4C)c3N)[nH]c2cc1NS(=O)(=O)c1cc(Cl)cc(C#N)c1 [Example 5-1-498, N-[2-[5-amino-1-[6-(2-fluorophenoxy)-4-methylpyridin-3-yl]pyrazole-4-carbonyl]-5-methyl-1H-indol-6-yl]-3-chloro-5-cyanobenzenesulfonamide] |  |  |  | 8.7 | 1600 | 420
Cc1cccc(S(=O)(=O)Nc2cc3[nH]c(C(=O)c4cnn(-c5cnc(Oc6c(F)cccc6F)cc5C)c4N)cc3cc2OCC(F)F)n1 [Example 5-1-573, N-[2-[5-amino-1-[6-(2,6-difluorophenoxy)-4-methylpyridin-3-yl]pyrazole-4-carbonyl]-5-(2,2-difluoroethoxy)-1H-indol-6-yl]-6-methylpyridine-2-sulfonamide] |  |  |  | 2.9 | 440 | 14
Cc1cc2cc(C(=O)c3cnn(-c4ccc(Oc5ccccc5F)cc4C)c3N)[nH]c2cc1N1C(=O)N[C@@H](C(C)C)C1=O [Example 5-1-476, (5S)-3-[2-[5-amino-1-[4-(2-fluorophenoxy)-2-methylphenyl]pyrazole-4-carbonyl]-5-methyl-1H-indol-6-yl]-5-propan-2-ylimidazolidine-2,4-dione] |  |  |  | 2.9 | 97 | 12
Cc1cc(Oc2ccccc2F)ccc1-n1ncc(C(=O)c2cc3cc(OCC(F)F)c(C4CCN(C(=O)OC(C)(C)C)CC4)cc3[nH]2)c1N [Example 5-1-068, tert-Butyl 4-[2-[5-amino-1-[4-(2-fluorophenoxy)-2-methylphenyl]pyrazole-4-carbonyl]-5-(2,2-difluoroethoxy)-1H-indol-6-yl] piperidine-1-carboxylate] | 5.6 | 15 | 8.4 |  |  | 
Cc1cc2cc(C(=O)c3cnn(-c4cnc(Oc5c(F)cccc5F)cc4C)c3N)[nH]c2cc1NS(=O)(=O)c1c(F)cc(F)cc1F [Example 5-1-565, N-[2-[5-amino-1-[6-(2,6-difluorophenoxy)-4-methylpyridin-3-yl]pyrazole-4-carbonyl]-5-methyl-1H-indol-6-yl]-2,4,6-trifluorobenzenesulfonamide] |  |  |  | 19 | 1100 | 720

Source: US10479780B2, “Aminopyrazole derivatives” (Chugai Seiyaku Kabushiki Kaisha, priority 2015, dated 2019)
